Assay results: patent publication US20260183273A1, “N,N-dialkyl-4-(2-ethylindan-2-yl)-1H-imidazole-1-carboxamides and related compounds for treatment of neurodegenerative diseases” (priority 2023, published 2026)
Like-named read-outs stand apart in the source and are kept apart here.

What was measured:
[1] = biological target: hAChE (Homo sapiens, UniProt P22303); test: biochemical; assay type: biochemical
Method: (§1) For time-dependency measurements, the pre-incubation time was varied (1 min, 5 min, 15 min, 30 min or 60 min). The reactions were started by the addition of the substrate (final concentration, 500 μM butyrylthiocholine iodide or acetylthiocholine iodide for hBChE and hAChE, respectively). The final content of DMSO was always 1%. […] The initial velocities in the presence (vi) and absence (vo) of the test compounds were calculated. The inhibitory potencies were expressed as the residual activities, according to RA=(vi−b)/(vo−b), where b is the blank value using phosphate buffer without ChEs. For IC50 determinations, at least seven different concentrations for each compound were used. The IC50 values were obtained by plotting the residual ChE activities against the applied inhibitor concentrations, with the experimental data fitted to a four-parameter logistic function (GraphPad Prism 9.4). Tacrine and donepezil were used as positive controls.

[2] = biological target: hBChE (Homo sapiens, UniProt P06276); test: Inhibition of cholinesterases, method of Ellman (hBChE); assay type: biochemical; settings: for hBChE time-dependency observed: yes/no: pre-incubation time varied (1, 5, 15, 30 or 60 min); for hBChE RA-residual activity: mean ± standard deviation, test concentration not given
Method: as §1

[3] = biological target: T1, human α2A adrenoreceptor from CHO cells (Homo sapiens, UniProt P08913); test: α2A binding assay (Eurofins), antagonist radioligand [3H]RX821002
T1 construct: host or cells: CHO cells
T1 sequence (P08913 1-465): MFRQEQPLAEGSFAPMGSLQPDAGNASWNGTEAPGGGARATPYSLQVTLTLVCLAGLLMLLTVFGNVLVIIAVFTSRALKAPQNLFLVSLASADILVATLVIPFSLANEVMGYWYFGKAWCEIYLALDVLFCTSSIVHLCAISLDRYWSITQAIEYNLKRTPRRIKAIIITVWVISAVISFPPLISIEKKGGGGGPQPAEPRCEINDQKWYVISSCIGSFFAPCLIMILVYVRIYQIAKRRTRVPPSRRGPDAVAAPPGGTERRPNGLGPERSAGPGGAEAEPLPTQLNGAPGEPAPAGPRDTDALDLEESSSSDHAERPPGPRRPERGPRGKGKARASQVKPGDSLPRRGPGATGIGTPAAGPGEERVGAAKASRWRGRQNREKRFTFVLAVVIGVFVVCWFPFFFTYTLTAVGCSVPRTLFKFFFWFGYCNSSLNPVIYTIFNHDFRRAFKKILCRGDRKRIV
Method: In each experiment the respective reference compound (yohimbine) was tested concurrently with the test compounds, and the data were compared with historical values determined at Eurofins. The experiment was accepted in accordance with Eurofins validation Standard Operating Procedure. Inhibition above 50% is considered to represent significant effects of the test compounds. The inhibition constants (Ki) were calculated using the Cheng-Prusoff equation.

[4] = Hydrolysis in plasma (LC-MS); assay type: in vitro ADME, human
Method: Samples were analysed by LC-MS system, which included Thermo Scientific UltiMate 3000 UHPLC liquid chromatograph and Thermo Scientific Exactive Plus Hybrid Quadrupole-Orbitrap mass spectrometer. The general method used a Waters Acquity UPLC® BEH C18 column (2.1×50 mm, 1.7 μm) and Waters Vanguard UPLC® BEH C18 precolumn (2.1×5 mm, 1.7 μm), thermostated at 40° C., with: injection volume, 1 μL; flow rate, 0.4 mL/min; autosampler temperature: 15° C., detector Full MS-SIM (runtime 1.5-3 min, positive mode, resolution: 70 000; AGC target: 3e^6; maximum IT: 200 ms; scan range: 200-300 m/z); mobile phase A: 0.1% formic acid in MQ water; B: 0.1% formic acid in acetonitrile. Gradient: 0-3 min, 20-75% B; 3-3.1 min 75-95% B; 3.1-4 min 95% B; 4-4.1 min 95-20% B; 4.1-6 min 20% B. Processing: ICIS peak detection algorithm, analyte 6—expected retention time: 1.87 min, 30 s window, mass range 213.14; analyte 7—expected retention time: 2.40 min, 30 s window, mass range 284.18.
To construct the calibration curves, the highest concentration (800 nM) stock solution was prepared in plasma, and serially diluted with plasma to different compound concentrations (8, 20, 40, 60, 80, 200, 400, 600, 800 nM). 50 μL of the respective biological sample were diluted with 200 μL MeOH, vortexed, centrifuged at 4° C. and 5000 rpm for 10 min, the supernatant transferred to HPLC vials with inserts, and analysed. 5 replicates were injected to check the precision, and to ascertain the matrix effects in plasma, 0.5 μL of […] 6 was diluted with 49.5 μL of either plasma or MQ water. […] To monitor the progress of 7 hydrolysis in plasma, 1 vol. % of 7.5 μM 7 stock solution was mixed with plasma, 50 μL aliquots were drawn successively after 1, 5, and 60 min and analysed as described above. In a control experiment, the plasma used was pretreated for 5 min with 1 mM ethopropazine to inhibit BChE, then 7 was added, and the above procedure followed.
(§2) As both 7 and BChE were being depleted, near the final timepoint the reaction rate slowed down considerably. […] 7 is readily hydrolysed in contact with plasma BChE—therefore, after an in vivo application (either parenteral or per os), adrenergic-active moiety 6 should be liberated in the bloodstream, permeate the blood-brain barrier, and reach the site of action in the central nervous system.

[5] = Non-enzymatic hydrolysis (aqueous stability); assay type: physicochemical; settings: compared with hydrolysis in plasma
Method: Reactions were monitored using analytical thin-layer chromatography (TLC) on silica gel 60 F254 Al plates. Developed plates were inspected under UV light and, if necessary, visualized with ninhydrin, vanillin/sulfuric acid, Dragendorff's or potassium permanganate stains. Melting points were determined with Büchi 535 Melting Point Apparatus (uncorrected). Nuclear magnetic resonance spectra were recorded on a Bruker Avance III 400 MHz spectrometer at 400 MHz for ^1H, 100 MHz for ^13C, and 376 MHz for ^19F nucleus, respectively, using CDCl3 with TMS as the internal standard as solvent. […] Mass spectra were recorded on Thermo Scientific Q Executive Plus LC-MS/MS spectrometer and IR spectra on Thermo Nicolet FT-IR spectrophotometer. […] The purities of the tested compounds were established to be ≥95%, as determined by UPLC.
as §2

[6] = 5 min preincubation, read-out: hBChE IC50 ± SEM
[7] = pre-incubation time varied (1, 5, 15, 30 or 60 min)
[8] = control plasma with 1 mM ethopropazine, nominal 75 nM 7, timepoint 60 min
[9] = hydrolysis of 7 in human plasma, nominal 75 nM, timepoint 1 min
[10] = hydrolysis of 7 in human plasma, nominal 75 nM, timepoint 5 min
[11] = hydrolysis of 7 in human plasma, nominal 75 nM, timepoint 60 min

Chain of hBChE (P06276 29-602): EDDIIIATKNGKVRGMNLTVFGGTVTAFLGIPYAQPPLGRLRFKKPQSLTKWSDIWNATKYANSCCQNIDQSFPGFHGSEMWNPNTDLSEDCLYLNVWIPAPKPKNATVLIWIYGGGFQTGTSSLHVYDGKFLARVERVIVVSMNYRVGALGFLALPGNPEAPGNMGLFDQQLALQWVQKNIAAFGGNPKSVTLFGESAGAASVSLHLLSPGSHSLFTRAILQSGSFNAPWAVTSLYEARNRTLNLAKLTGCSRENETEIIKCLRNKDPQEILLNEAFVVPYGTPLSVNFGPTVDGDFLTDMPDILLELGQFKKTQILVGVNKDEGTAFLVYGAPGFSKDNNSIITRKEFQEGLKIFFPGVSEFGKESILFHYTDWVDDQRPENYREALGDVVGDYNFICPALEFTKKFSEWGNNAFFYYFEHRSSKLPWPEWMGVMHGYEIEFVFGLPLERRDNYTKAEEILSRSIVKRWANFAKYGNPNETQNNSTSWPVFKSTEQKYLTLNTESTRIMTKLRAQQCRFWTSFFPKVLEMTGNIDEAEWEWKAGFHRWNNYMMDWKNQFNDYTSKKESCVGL
Chain of hAChE (P22303 32-614): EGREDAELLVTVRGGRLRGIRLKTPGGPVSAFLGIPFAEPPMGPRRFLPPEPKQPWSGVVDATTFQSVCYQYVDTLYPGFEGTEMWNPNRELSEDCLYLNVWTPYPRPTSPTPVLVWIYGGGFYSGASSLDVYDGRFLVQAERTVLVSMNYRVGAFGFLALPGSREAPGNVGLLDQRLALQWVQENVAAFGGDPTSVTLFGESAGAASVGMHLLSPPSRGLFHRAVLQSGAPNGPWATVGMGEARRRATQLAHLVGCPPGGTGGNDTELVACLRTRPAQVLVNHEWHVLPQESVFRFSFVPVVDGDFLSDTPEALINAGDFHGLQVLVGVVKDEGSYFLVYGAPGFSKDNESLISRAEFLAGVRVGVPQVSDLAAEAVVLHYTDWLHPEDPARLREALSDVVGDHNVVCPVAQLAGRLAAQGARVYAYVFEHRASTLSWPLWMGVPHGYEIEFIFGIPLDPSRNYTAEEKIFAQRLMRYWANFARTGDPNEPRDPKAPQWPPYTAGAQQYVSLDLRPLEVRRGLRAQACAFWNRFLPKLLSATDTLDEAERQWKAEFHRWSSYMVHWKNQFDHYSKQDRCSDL

## CCC1(c2cn(C(=O)N3CCCCC3)cn2)Cc2ccccc2C1 [Compound 18, (4-(2-ethylindan-2-yl)-1H-imidazol-1-yl)(piperidin-1-yl)methanone]
[1]; read-out: hAChE IC50 ± SEM
  IC50: 5180 ± 1620 nM
[2]; [6]
  IC50: 4.8 ± 0.944 nM
[2]
  hBChE time-dependency observed: yes/no: yes

## CCC1(c2cn[nH]n2)Cc2ccccc2C1 [Compound 13, 4-(2-Ethylindan-2-yl)-2H-1,2,3-triazole]
[1]
  hAChE IC50 ± SEM: Not active (87.3 ± 7.5%)
  hAChE RA-residual activity: Not active (87.3 ± 7.5%)
[2]; 5 min preincubation
  hBChE IC50 ± SEM: Not active
  hBChE RA-residual activity: 60.3 ± 1.0%
[3]
  inhibition at 1 µM: 6.1%

## CCC1(c2cn(C(=O)N(C)Cc3ccccc3)cn2)Cc2ccccc2C1 [Compound 17, N-benzyl-4-(2-ethylindan-2-yl)-N-methyl-1H-imidazole-1-carboxamide]
[1]
  hAChE RA-residual activity: 46.4 ± 3.3% yes
[2]; [6]
  IC50: 95.7 ± 17.1 nM
[2]
  hBChE time-dependency observed: yes/no: yes

## CCC1(c2nc[nH]n2)Cc2ccccc2C1 [Compound 15, 3-(2-Ethylindan-2-yl)-1H-1,2,4-triazole]
[1]
  hAChE IC50 ± SEM: Not active (79.8 ± 7.0%)
  hAChE RA-residual activity: Not active (79.8 ± 7.0%)
[2]; 5 min preincubation
  hBChE IC50 ± SEM: Not active
  hBChE RA-residual activity: 95.9 ± 6.8%
[3]
  inhibition at 1 µM: 2.1%

## CCN(CC)C(=O)n1cnc(C2(CC)Cc3ccccc3C2)c1 [Compound 8, N,N-diethyl-4-(2-ethylindan-2-yl)-1H-imidazole-1-carboxamide]
[1]
  hAChE IC50 ± SEM: Not active (66.8 ± 4.7%) no
  hAChE RA-residual activity: Not active (66.8 ± 4.7%) no
[2]; [6]
  IC50: 1460 ± 218 nM
[2]
  hBChE time-dependency observed: yes/no: yes

## [2H]C([2H])([2H])C([2H])([2H])C1(c2cn(C(=O)N(CC)CC)cn2)Cc2ccccc2C1 [Compound 21, N,N-diethyl-4-(2-(ethyl-d5)indan-2-yl)-1H-imidazole-1-carboxamide]
[1]; 5 min preincubation, mean ± standard deviation, test concentration not given
  hAChE RA-residual activity: 58.9 ± 2.3%
[1]; [7]
  hAChE time-dependency observed: yes/no: yes
[2]; [6]
  IC50: 7830 ± 1320 nM
[2]
  hBChE time-dependency observed: yes/no: yes

## CCC1(c2cnc[nH]2)Cc2ccccc2C1 [Compound 6, 4-(2-ethylindan-2-yl)-1H-imidazole]
[4]; [8]
  concentration of analyte: 9.816 nM
[4]; [9]
  concentration of analyte: 15.911 nM
[4]; [10]
  concentration of analyte: 29.071 nM
[4]; [11]
  concentration of analyte: 65.375 nM

## CCC1(c2cn(C(=O)N(C)C)cn2)Cc2ccccc2C1 [Compound 7, 4-(2-Ethylindan-2-yl)-N,N-dimethyl-1H-imidazole-1-carboxamide]
[1]
  hAChE time-dependency observed: yes/no: 30507 ± 6304 yes
[1]; read-out: hAChE IC50 ± SEM
  IC50: 30500 ± 6300 nM
[4]; control plasma with 1 mM ethopropazine, nominal 75 nM 7, timepoint 1 min
  concentration of analyte: 74.477 nM
[4]; control plasma with 1 mM ethopropazine, nominal 75 nM 7, timepoint 5 min
  concentration of analyte: 72.158 nM
[4]; [8]
  concentration of analyte: 71.131 nM
[4]; [9]
  concentration of analyte: 66.508 nM
[4]; [10]
  concentration of analyte: 55.665 nM
[4]; [11]
  concentration of analyte: 22.431 nM
[2]; [6]
  IC50: 12.6 ± 2 nM
[2]
  hBChE time-dependency observed: yes/no: yes
[3]
  inhibition at 1 µM: 6%
[5]
  non-enzymatic hydrolysis rate: several orders of magnitude slower

## CCC1(c2cnn(C(=O)N(C)C)n2)Cc2ccccc2C1 [Compound 14, 4-(2-Ethylindan-2-yl)-N,N-dimethyl-2H-1,2,3-triazole-2-carboxamide]
[1]
  hAChE time-dependency observed: yes/no: 180.9 ± 35.5 yes
[1]; read-out: hAChE IC50 ± SEM
  IC50: 181 ± 35.5 nM
[2]; [6]
  IC50: 2.39 ± 0.63 nM
[2]
  hBChE time-dependency observed: yes/no: yes

## CCC1(c2cn(C(=O)N(C)C)c[n+]2C)Cc2ccccc2C1 [Compound 9, 1-(Dimethylcarbamoyl)-4-(2-ethylindan-2-yl)-3-methyl-1H-imidazol-3-ium trifluoromethanesulfonate]
[1]
  IC50: 431 ± 113 nM
[1]; [7]
  hAChE time-dependency observed: yes/no: yes
[2]
  IC50: 4.18 ± 0.77 nM
  hBChE time-dependency observed: yes/no: yes

## CCC1(c2ncn(C(=O)N(C)C)n2)Cc2ccccc2C1 [Compound 16, 3-(2-Ethylindan-2-yl)-N,N-dimethyl-1H-1,2,4-triazole-1-carboxamide]
[1]; read-out: hAChE IC50 ± SEM
  IC50: 1980 ± 239 nM
[2]; [6]
  IC50: 4.12 ± 0.35 nM
[2]
  hBChE time-dependency observed: yes/no: yes
